Assay results published in US5674905A, “Bicyclooctane and bicycloheptane derivatives” (James Black Foundation Limited, priority 1992, dated 1997).

Key:
CCKB receptor = target: T1, CCKB receptor (Mus musculus, UniProt P56481); assay: radioligand binding assay at the CCKB receptor in mouse cortical membranes ([125I]-CCK8S); conditions: 150 min at 21±3°; for Ki: read-out: CCKB pKi (converted)
T1 construct: The cortex was dissected, weighed and homogenised in 40 ml ice-cold buffer; from tissue; host or cells: cerebral cortex membranes of male CD1 mice (Charles River)
T1 sequence (P56481 1-453): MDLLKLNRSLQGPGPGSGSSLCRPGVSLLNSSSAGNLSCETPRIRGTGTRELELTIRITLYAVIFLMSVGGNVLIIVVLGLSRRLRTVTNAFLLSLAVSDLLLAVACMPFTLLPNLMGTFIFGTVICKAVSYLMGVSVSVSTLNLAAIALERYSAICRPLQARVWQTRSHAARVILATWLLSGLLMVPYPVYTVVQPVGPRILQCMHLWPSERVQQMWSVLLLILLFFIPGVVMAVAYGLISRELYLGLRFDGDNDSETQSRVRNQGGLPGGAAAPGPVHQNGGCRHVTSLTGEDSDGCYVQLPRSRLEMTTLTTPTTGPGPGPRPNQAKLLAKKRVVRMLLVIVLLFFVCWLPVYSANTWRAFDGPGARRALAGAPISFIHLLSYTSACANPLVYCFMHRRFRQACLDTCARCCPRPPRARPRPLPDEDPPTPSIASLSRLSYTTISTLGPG
Outline: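 Competition binding on cortical membranes from male CD1 mice in pH 7.2 HEPES buffer with bacitracin, using [125I]-CCK8S (200 pM) and test compound, 150 min at 21±3°. Non-specific binding defined with L-365,260 ([…]). Bound radioactivity collected by filtration and gamma-counted.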

gastrin receptors = target: T2, gastrin receptors (Rattus norvegicus, UniProt P30553); assay: gastrin antagonist activity in an immature rat stomach assay (pentagastrin-stimulated acid secretion); conditions: isolated immature rat stomach, cumulative pentagastrin dose-response curves; for Kb: read-out: Gastrin pKB (converted)
T2 construct: from tissue; host or cells: isolated perfused whole stomach of immature rats (33-50 g, ca. 21 days old)
T2 sequence (P30553 1-452): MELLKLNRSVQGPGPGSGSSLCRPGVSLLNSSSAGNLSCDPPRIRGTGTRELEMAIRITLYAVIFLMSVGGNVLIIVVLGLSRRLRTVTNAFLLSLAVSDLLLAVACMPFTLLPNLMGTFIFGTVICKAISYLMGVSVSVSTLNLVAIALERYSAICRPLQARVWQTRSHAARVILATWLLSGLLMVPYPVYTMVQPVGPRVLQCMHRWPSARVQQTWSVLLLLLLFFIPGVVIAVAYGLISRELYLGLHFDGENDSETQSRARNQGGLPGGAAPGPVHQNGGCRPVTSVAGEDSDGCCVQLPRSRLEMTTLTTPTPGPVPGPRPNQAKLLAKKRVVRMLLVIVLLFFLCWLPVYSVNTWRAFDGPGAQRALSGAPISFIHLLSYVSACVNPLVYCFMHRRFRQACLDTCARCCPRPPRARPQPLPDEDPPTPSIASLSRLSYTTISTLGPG
Procedure: The compounds of the examples were also tested for gastrin antagonist activity in an immature rat stomach assay. The procedure was as follows:
The oesophagus of immature rats (33-50 g, ca. 21 days old) was ligated at the level of the cardiac sphincter and the duodenal sphincter was cannulated. The stomach was excised and flushed with ca. 1 ml of unbuffered physiological saline solution. The fundus was punctured and cannulated. A further 4-5 ml of unbuffered solution was flushed through the stomach to ensure the preparation was not leaking. The stomach was lowered into a jacketed organ bath containing 40 ml of buffered solution containing 3×10^-8 M 5-methyl-furmethide, maintained at 37° and gassed vigorously with 95% O2 /5% CO2. The stomach was continuously perfused at a rate of 1 ml min^-1 with unbuffered solution gassed with 100% O2 with the perfusate passing over an internally referenced pH-electrode fixed 12 cm above the stomach.
After 120 min of stabilisation the drugs were added directly to the serosal solution in the organ bath and after a further 60 min cumulative pentagastrin dose-response curves were started. Changes in acid secretion were monitored and the curves analysed according to Black et. al., Br. J. Pharmacol., 1985, 86, 581.

CCKA = target: T3, CCKA (Cavia porcellus, UniProt Q63931); assay: CCKA binding assay in guinea-pig pancreas membranes ([125I]-CCK8(S)); conditions: 150 minutes at 21±3°; for Ki: 0.375 μM PD134,308, read-out: CCKA pKi (converted)
T3 construct: The pancreatata were removed from male guinea-pigs (200-300 g; Dunkin Hartley); from tissue; host or cells: pancreas membranes of male Dunkin Hartley guinea-pigs
T3 sequence (Q63931 1-430): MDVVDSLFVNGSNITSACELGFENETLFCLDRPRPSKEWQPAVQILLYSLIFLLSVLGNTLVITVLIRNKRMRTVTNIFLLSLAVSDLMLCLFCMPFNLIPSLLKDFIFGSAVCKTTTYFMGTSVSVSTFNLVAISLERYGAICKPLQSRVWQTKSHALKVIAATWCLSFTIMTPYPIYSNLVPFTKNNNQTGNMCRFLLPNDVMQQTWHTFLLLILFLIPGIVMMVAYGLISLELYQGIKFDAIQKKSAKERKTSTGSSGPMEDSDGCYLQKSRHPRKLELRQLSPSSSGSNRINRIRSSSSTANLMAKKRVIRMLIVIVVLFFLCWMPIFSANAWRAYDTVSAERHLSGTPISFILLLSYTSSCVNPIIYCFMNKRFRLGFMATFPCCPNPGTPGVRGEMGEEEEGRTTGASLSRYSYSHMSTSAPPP
Procedure: The compounds of the examples were also tested in a CCKA binding assay as follows:
The pancreatata were removed from male guinea-pigs (200-300 g; Dunkin Hartley) and placed in ice-cold HEPES buffer (pH 7.2 @ 21±3°). The pancreatata were homogenised in 40 ml ice-cold HEPES buffer using a polytron (Brinkmann, PT10, setting 10) 4×1 second. The homogenate was centrifuged at 39,800 g for 15 min at 4°. The supernatant was discarded and the pellet re-suspended using a Teflon-in-glass homogeniser in 20 volumes of fresh buffer and re-centrifuged as above. The final pellet was re-suspended using a Teflon-in-glass homogeniser to a tissue concentration of 1 mg.ml^-1 (original wet weight), and filtered through 500 μm pore-size Nytex mesh.
The membranes (400 μl; containing 0.375 μM PD134,308) are incubated for 150 minutes at 21±3° in a final volume of 0.5 ml with HEPES buffer containing [^125 I]-CCK8 (S)(50 μl; pM) and competing compound. Total and non-specific binding of [^125 I]-CCK8 (S) are defined using 50 μl of buffer and 50 μl of 100 nM L-364,718 respectively. The assay is terminated by rapid filtration through pre-soaked Whatman GF/B filters using a Brandell Cell Harvester. The filters were washed (3×3 ml) with ice-cold 50 mM Tris HCl (pH 7.4 at 4°) and bound radioactivity is determined by counting (1 min) in a gamma counter.

Compound | Ki (CCKB receptor) | Kb (gastrin receptors) | Ki (CCKA) | CCKB pKi (CCKB receptor) | Gastrin pKB (gastrin receptors; 60 min) | CCKA pKi (CCKA; 0.375 μM PD134,308)
O=C(NCC12CC3CC(CC(C3)C1)C2)C1C2C=CC(c3ccccc32)C1C(=O)N[C@H](Cc1c[nH]c2ccccc12)C(=O)O (single isomer, unassigned) [Example 18, exo-cis-7-(2-R-(3-indolyl)-1-carboxy-ethylaminocarbonyl)-8-(1-adamantylmethylaminocarbonyl)-5,6-benzobicyclo[2.2.2]oct-2-ene] | 794 nM | 1000 nM | 1000 nM | – | – | –
O=C(O)CNC(=O)[C@H]1CCCN1C(=O)C1C2c3ccccc3C(c3cc4ccccc4cc32)C1C(=O)NCC12CC3CC(CC(C3)C1)C2 (single isomer, unassigned) [Example 38, cis-7-(2R-carboxymethylaminocarbonyl-pyrrolidinocarbonyl)-8-(1-adamantylmethylaminocarbonyl)-2,3-benzo-5,6-(2,3-naphtho)bicyclo[2.2.2]octane] | 251 nM | 631 nM | 7940 nM | – | – | –
exo-cis-7-(2-R-(3-indolyl)-1-carboxy-ethylaminocarbonyl)-8-(1-adamantylmethylaminocarbonyl)-5,6-benzobicyclo[2.2.2]oct-2-ene [Example 17] | – | – | – | 6.8 | 6.2 | 6.3
O=C(O)CNC(=O)[C@H]1CCCN1C(=O)C1C2CCC(c3ccccc32)C1C(=O)NCC12CC3CC(CC(C3)C1)C2 (stereo partly drawn) [Example 42, cis-exo-7-(2R-carboxymethylaminocarbonyl-pyrrolidinocarbonyl)-8-(1-adamantylmethylaminocarbonyl)-2,3-benzobicyclo[2.2.2]octane] | 3980 nM | – | 6310 nM | – | – | –
O=C(O)CNC(=O)[C@H]1CCCN1C(=O)C1C2c3ccccc3C(c3cc4ccccc4cc32)C1C(=O)NCC12CC3CC(CC(C3)C1)C2 (single isomer, unassigned) [Example 37, cis-7-(2R-carboxymethylaminocarbonyl-pyrrolidinocarbonyl)-8-(1-adamantylmethylaminocarbonyl)-2,3-benzo-5,6-(2,3-naphtho)bicyclo[2.2.2]octane] | 158 nM | 501 nM | 3160 nM | – | – | –
C[C@H](NC(=O)[C@@H]1CCCN1C(=O)C1C2CCC(c3ccccc32)C1C(=O)NCC12CC3CC(CC(C3)C1)C2)C(=O)O (stereo partly drawn) [Example 43, cis-exo-7-(2S-(1S-carboxyethylaminocarbonyl)-pyrrolidinocarbonyl)-8-(1-adamantylmethylaminocarbonyl)-2,3-benzobicyclo[2.2.2]octane] | 2000 nM | – | 10000 nM | – | – | –
